Test results: patent US20060171911A1, “Diiodomethyl-p-tolylsulfone as a particulate dispersion in a liquid solvent in combination with an anti-dandruff active” (priority 2005, published 2006)

Assays:
fungal [1] = test: Anti-fungal activity, dispersed particle form vs. dissolved in an effective solvent
[2] = cited from earlier work
fungal [3] = conditions: cited from earlier work

Compound: Cc1ccc(S(=O)(=O)C(I)I)cc1 [diiodomethyl-p-tolylsulfone, Benzene, 1-[(diiodomethyl)sulfonyl]-4-methyl-(9CI)]
- activity retained in dispersed particle form vs. dissolved in an effective solvent (fungal [1]): about 100%
- water solubility [2]: less than 5 ppm
- pH range over which effective (fungal [3]): 2-11 pH
